Experimental data taken from US11331280B2, “Methods for inhibiting conversion of choline to trimethylamine (TMA)” (The Procter & Gamble Company, priority 2018, dated 2022).

Columns and labels:
[1] = test system: human fecal polymicrobial community; experiment: Example 11: human fecal polymicrobial incubation with d9-choline, compound screening; format: cell-based; conditions: TABLE 11, fecal slurry, 50 μM d9-choline chloride, 20 hours, doses 250 μM to 0.238 nM, read-out: TMA Inhibition (IC50, mol/L)
Procedure: Human fecal polymicrobial incubation with deuterium labeled choline compound screening method, including cell viability assay. All materials were pre-reduced in an anaerobic chamber for 24 hours before using in the experiments and experimental procedures were performed under anaerobic conditions (chamber purged with 85% nitrogen, 5% hydrogen, 10% carbon dioxide).
Human fecal samples were collected from a healthy volunteer with no chronic illnesses, blood borne diseases or active infections. The volunteer had not received antibiotics within two months prior to donation and provided written informed consent. Samples were diluted to make a 20% (w/v) fecal slurry by resuspension of the feces in a media containing 3% (w/v) tryptic soy broth (BBL #211825), 1% (w/v) trehalose (Sigma #T9631), pH 7.3. The fecal slurry was homogenized and filtered by hand using a stomacher bag with an integrated 170 μm membrane. DMSO (5% (w/v)) was added to the filtered slurry and aliquots were stored in cryogenic vials at −80° C. until use. […] After 20 hours, an aliquot of the fecal polymicrobial community was analyzed for viability using PrestoBlue cell viability reagent (Thermo Fisher Scientific, USA) as described below. […] The products were determined by LC/MS/MS and IC50 values were calculated as described previously for detection and analysis of TMA and d9-TMA in EXAMPLE 9. […]

[2] = test system: Proteus mirabilis 29906 (Pm) lysate; experiment: Example 10: inhibition of formation of TMA from choline by compounds in Proteus mirabilis lysate; format: biochemical; conditions: TABLE 10, 50 μM d9-choline chloride, two hours at 37° C., read-out: TMA Inhibition (IC50, mol/L)
Procedure: This example provides an exemplary assay for identifying and characterizing compounds that inhibit the formation of TMA from choline.
Proteus mirabilis 29906 (Pm) strain was grown aerobically overnight in 500 ml of Nutrient Broth media (3 g/L beef extract, 5 g/L Peptone; Difco #234000) at 37° C. with 250 rpm shaking. The biomass was pelleted by centrifugation at 6000×g for 12 minutes at 4° C. The cell pellet was suspended in 240 mL of ice-cold 1× Phosphate Buffered Saline (Ca^2+ and Mg^2+ free). Ninety micrograms of Lysozyme (Sigma #L6876 Lot #SLBG8654V; Sigma-Aldrich Corp., St. Louis, Mo.) was added and incubated with 320 rpm shaking for 30 minutes at 4° C. Lysis was achieved via French press with a 4° C. prechilled 1″ diameter chamber at 1000 psi (high ratio; internal PSI equivalent ˜16000). The lysate was centrifuged at 6,000×g for 12 minutes at 4° C. to pellet extra debris. A protein concentration of the centrifuged lysate supernatant was determined by a BCA Protein Assay Kit (Pierce #23225; Thermo Fisher Scientific Co., Waltham, Mass.) and protein concentration adjusted to 3 mg/ml with 1× Dulbecco's phosphate buffered saline (DPBS). […]
The plates were again agitated on a plate shaker for 1 minute and incubated at 37° C. for two hours. […] The supernatant was removed and analyzed as described below. […]

**Q.** With `C[S+](C)(=O)CCO` [(2-hydroxyethyl) dimethylsulfoxonium chloride] as the compound, how does the IC50 [1] read?
**A.** 0.0973 µM

**Q.** And the IC50 [2]?
**A.** 0.00774 µM
